# Measured values published in US20250049777A1, “PHARMACEUTICALLY ACCEPTABLE SALT AND CRYSTALLINE FORM OF GLP-1 RECEPTOR AGONIST AND PREPARATION METHOD THEREFOR” (JIANGSU HENGRUI PHARMACEUTICALS CO., LTD., priority 2021, published 2025).
# Where a name gives a salt, the structure may show the parent alone. Read-outs that look alike come from different tables or passages of the source.
# Assays:
# [1] = type: physicochemical
# Method: A salt-type sample was sealed with an aluminum foil bag and placed under the conditions of 25° C./60% RH and 40° C./75% RH, respectively, to investigate the stability.
# [2] = Stability of crystal forms of salts under influencing factors (illumination, high temperature, high humidity); type: physicochemical
# Source text: The sampling and investigation period was 30 days.
# [3] = Hygroscopicity of crystal forms of salts (DVS, 25° C.); type: physicochemical; conditions: for Crystal form after DVS: 0% to 95% RH
# Source text: According to the description of hygroscopic characteristics and the definition of hygroscopic weight gain in “9103 Guidelines for Hygroscopicity of Pharmaceuticals”, Chinese Pharmacopoeia, Volume IV, 2015 edition, the following are defined: • deliquescent: absorbing enough water to form a liquid; • extremely hygroscopic: having a hygroscopic weight gain of not less than 15%; • hygroscopic: having a hygroscopic weight gain of less than 15% and not less than 2%; • slightly hygroscopic: having a hygroscopic weight gain of less than 2% and not less than 0.2%; and • no or almost no hygroscopicity: having a hygroscopic weight gain of less than 0.2%.
# Surface Measurement Systems intrinsic DVS was used at 25° C. The observed humidity ranged from 0% to 95%. The step was 10%. The criterion was that the mass change dM/dT for each step was less than 0.002%. TMAX was 360 min. Two cycles were carried out.
# [4] = 25° C./60% RH, sealed aluminum foil bag
# [5] = 40° C./75% RH, sealed aluminum foil bag
# [6] = Illumination (4500 Lux), 7 days, open
# [7] = Illumination (4500 Lux), 14 days, open
# [8] = Illumination (4500 Lux), 30 days, open
# [9] = Illumination (4500 Lux), 5 days, open
# [10] = Illumination (4500 Lux), 10 days, open
smiles,measurement,setting,value
"O=C(O)c1ccc2nc(CN3CCC(c4cccc5c4O[C@@H](c4ccc(Cl)cc4F)CO5)CC3)n(C[C@@H]3CCO3)c2c1 [Crystal form D of tromethamine salt, 2-((4-((S)-3-(4-chloro-2-fluorophenyl)-2,3-dihydrobenzo[b][1,4]dioxan-5-yl)piperidin-1-yl)methyl)-1-(((S)-oxetan-2-yl)methyl)-1H-benzo[d]imidazole-6-carboxylic acid]",physical and chemical stability,[1],good physical and chemical stability
same,% Purity,"[1]; 25° C./60% RH, 1 month, sealed aluminum foil bag",99.7%
same,% Purity,"[1]; 25° C./60% RH, 3 months, sealed aluminum foil bag",99.7%
same,Crystal form,[1]; [4],Unchanged
same,% Purity,"[1]; 40° C./75% RH, 1 month, sealed aluminum foil bag",99.5%
same,% Purity,"[1]; 40° C./75% RH, 3 months, sealed aluminum foil bag",99.1%
same,Crystal form,[1]; [5],Unchanged
same,% Purity,[1]; Initial condition,99.7%
same,% Purity,"[2]; 40° C., 7 days, open",99.5%
same,Crystal form,"[2]; 40° C., 7 days, open",Unchanged
same,% Purity,"[2]; 40° C., 14 days, open",99.3%
same,Crystal form,"[2]; 40° C., 14 days, open",Unchanged
same,% Purity,"[2]; 40° C., 30 days, open",99.3%
same,Crystal form,"[2]; 40° C., 30 days, open",Unchanged
same,% Purity,"[2]; 60° C., 7 days, open",99.4%
same,Crystal form,"[2]; 60° C., 7 days, open",Unchanged
same,% Purity,"[2]; 60° C., 14 days, open",99.1%
same,Crystal form,"[2]; 60° C., 14 days, open",Unchanged
same,% Purity,"[2]; 60° C., 30 days, open",99.0%
same,Crystal form,"[2]; 60° C., 30 days, open",Unchanged
same,% Purity,"[2]; 75% RH, 7 days, open",99.7%
same,Crystal form,"[2]; 75% RH, 7 days, open",Unchanged
same,% Purity,"[2]; 75% RH, 14 days, open",99.6%
same,Crystal form,"[2]; 75% RH, 14 days, open",Unchanged
same,% Purity,"[2]; 75% RH, 30 days, open",99.6%
same,Crystal form,"[2]; 75% RH, 30 days, open",Unchanged
same,% Purity,"[2]; 92.5% RH, 7 days, open",99.5%
same,Crystal form,"[2]; 92.5% RH, 7 days, open",Unchanged
same,% Purity,"[2]; 92.5% RH, 14 days, open",99.4%
same,Crystal form,"[2]; 92.5% RH, 14 days, open",Unchanged
same,% Purity,"[2]; 92.5% RH, 30 days, open",99.0%
same,Crystal form,"[2]; 92.5% RH, 30 days, open",Unchanged
same,% Purity,[2]; [6],99.6%
same,Crystal form,[2]; [6],Unchanged
same,% Purity,[2]; [7],99.6%
same,Crystal form,[2]; [7],Unchanged
same,% Purity,[2]; [8],99.6%
same,Crystal form,[2]; [8],Unchanged
same,% Purity,"[2]; Initial condition, 0 days",99.7%
same,hygroscopic weight gain 0.0% RH to 80.0% RH,[3],2.45%
same,Crystal form after DVS,[3],Unchanged
"O=C(O)c1ccc2nc(CN3CCC(c4cccc5c4O[C@@H](c4ccc(Cl)cc4F)CO5)CC3)n(C[C@@H]3CCO3)c2c1 [Crystal form I of tartrate salt, 2-((4-((S)-3-(4-chloro-2-fluorophenyl)-2,3-dihydrobenzo[b][1,4]dioxan-5-yl)piperidin-1-yl)methyl)-1-(((S)-oxetan-2-yl)methyl)-1H-benzo[d]imidazole-6-carboxylic acid]",physical and chemical stability,[1],good physical and chemical stability
same,Crystal form,[1]; [4],Unchanged
same,Crystal form,[1]; [5],Unchanged
same,% Purity,[1]; Initial condition,98.8%
same,% Purity,"[2]; 40° C., 5 days, open",98.4%
same,Crystal form,"[2]; 40° C., 5 days, open",Unchanged
same,% Purity,"[2]; 40° C., 10 days, open",98.1%
same,Crystal form,"[2]; 40° C., 10 days, open",Unchanged
same,% Purity,"[2]; 40° C., 30 days, open",97.6%
same,Crystal form,"[2]; 40° C., 30 days, open",Unchanged
same,% Purity,"[2]; 60° C., 5 days, open",97.9%
same,Crystal form,"[2]; 60° C., 5 days, open",Unchanged
same,% Purity,"[2]; 60° C., 10 days, open",97.2%
same,Crystal form,"[2]; 60° C., 10 days, open",Unchanged
same,% Purity,"[2]; 60° C., 30 days, open",96.4%
same,Crystal form,"[2]; 60° C., 30 days, open",Unchanged
same,% Purity,"[2]; 75% RH, 5 days, open",98.6%
same,Crystal form,"[2]; 75% RH, 5 days, open",Unchanged
same,% Purity,"[2]; 75% RH, 10 days, open",98.6%
same,Crystal form,"[2]; 75% RH, 10 days, open",Unchanged
same,% Purity,"[2]; 75% RH, 30 days, open",98.4%
same,Crystal form,"[2]; 75% RH, 30 days, open",Unchanged
same,% Purity,"[2]; 92.5% RH, 5 days, open",98.7%
same,Crystal form,"[2]; 92.5% RH, 5 days, open",Unchanged
same,% Purity,"[2]; 92.5% RH, 10 days, open",98.6%
same,Crystal form,"[2]; 92.5% RH, 10 days, open",Unchanged
same,% Purity,"[2]; 92.5% RH, 30 days, open",98.3%
same,Crystal form,"[2]; 92.5% RH, 30 days, open",Unchanged
same,% Purity,[2]; [9],98.7%
same,Crystal form,[2]; [9],Unchanged
same,% Purity,[2]; [10],98.6%
same,Crystal form,[2]; [10],Unchanged
same,% Purity,[2]; [8],98.3%
same,Crystal form,[2]; [8],Unchanged
same,% Purity,"[2]; Initial condition, 0 days",98.8%
same,hygroscopic weight gain 0.0% RH to 80.0% RH,[3],1.44%
same,Crystal form after DVS,[3],Unchanged
